The values that follow come from publication PMC8765435, “In Vitro Antimalarial Activity of Inhibitors of the Human GTPase Rac1” (Antimicrobial Agents and Chemotherapy, 2022).

For one data set, the system named is 3D7 immature gametocytes. As to the kind of experiment: Gametocyte viability luminescence assay, immature gametocytes. The format is cell-based, Plasmodium falciparum. The settings on record: Plasmodium falciparum, 3D7, stage II-III gametocytes, 72 h, read-out: Mean IC50 ± SD, 3D7 immature gametocytes. The protocol: (§1) Chloroquine (CQ)-sensitive (D10, wild-type 3D7, or transgenic 3D7elo1-pfs16-CBG99) and CQ-resistant (W2) strains of P. falciparum were cultured as described previously ([58]), with slight modifications, as detailed in the supplemental material.
(§2) Asexual parasite growth was determined spectrophotometrically (optical density at 650 nm [OD650]) by measuring the activity of parasite lactate dehydrogenase (pLDH), according to a modified version of the method of Makler et al. ([59]). Gametocyte viability was measured by a luminescence method described previously ([60]). Details for the two methods are reported in the supplemental material. From either the OD or ALU (arbitrary luminescence units), the percentages of viability were calculated according to the formula 100 × (treated sample signal − blank signal)/(untreated control signal − blank signal). The blank for the pLDH assay was uninfected RBCs at the same hematocrit as that of parasitized RBCs, and the blank for the luminescence assay was parasites treated with a high dose of methylene blue. […]
(§3) strain (wild type or transgenic 3D7elo1-pfs16-CBG99 strain) was cultured in similar conditions, except for 10% naturally clotted Human O+ serum instead of AlbuMaxII and human type O-positive instead of A-positive RBCs. […]
(§4) in a standard gas mixture consisting of 1% O2, 5% CO2, 94% N2. Immature (stage II-III) and mature (stage V) gametocytes were obtained as described1. Briefly, cultures were diluted to 0.5% parasitemia at 5% HCT, and the medium was changed daily until parasites were stressed by nutrient deprivation. N-acetylglucosamine (NAG) (Sigma-Aldrich) 50 mM was then added to clear residual asexual parasites: Stage II and III gametocytes were obtained 4 days after NAG addition to the culture, while stage IV and V gametocytes were used 11 to 13 days from NAG addition. Gametocyte stages were routinely checked on Giemsa-stained smears. […]
(§5) Drug treated gametocyte cultures were transferred to 96-well black microplates and D-luciferin (1 mM in citrate buffer 0.1 M, pH 5.5) was added at a 1:1 volume ratio. Luminescence measurements were performed after 10 min with 500 ms integration time. Gametocytes treated

For another data set, the system named is 3D7 mature gametocytes. As to the kind of experiment: Gametocyte viability luminescence assay, mature gametocytes. In kind it is cell-based, Plasmodium falciparum. As to conditions: Plasmodium falciparum, 3D7; stage V gametocytes, 72 h, luminescence; read-out: Mean IC50 ± SD, 3D7 mature gametocytes. Here is the method: as §1, §2, §3, §4, §5
In data set [1] the test system is HMEC-1 human microvascular endothelial cells. As to the kind of experiment: Cell cytotoxicity MTT assay. The format is cell-based. The protocol: Cytotoxicity was evaluated on human microvascular endothelial cells (HMEC-1) as detailed in the supplemental material. […] Plates were then read on a microplate reader (Synergy 4; BioTek) at a wavelength of 550 nm (reference, 650 nm). […] All tests were performed in duplicate at least three times.
The selectivity index (SI) is the ratio between the cytotoxic IC50 value against HMEC-1 cells and the parasitic IC50 value against the D10 strain and indicates the compound selectivity for the parasite.
Cytotoxicity was evaluated on Human Microvascular Endothelial Cells (HMEC-1) maintained
and 2 mM L-glutamine. Cells were seeded in 96 well flat bottom tissue culture clusters (1.5x104
cells/well), let adhere overnight and treated with serial dilutions of test compounds . […]

Data set [2] has as its system Rac1. On the set-up: method as in PMID 22383527. As to conditions: Rac1 activity in MDA-MB-435 melanoma cells; cited from earlier work.
In data set [3] the test system is human mammary epithelial cells. On the set-up: method as in PMID 25389450, PMID 25594952. The settings on record: at concentrations lower than 5 μM; cited from earlier work.
Details of data set [4]: method as in PMID 25389450, PMID 25594952. As to conditions: mice, orally, 25 mg/kg three times a week for 55 days; cited from earlier work.
Data set [5] concerns the target Rac1 (Homo sapiens, UniProt P63000). Nature of the data set: G-LISA Rac1 activation assay in uninfected erythrocytes. In kind it is cell-based. On the set-up: endogenous in cells; host or cells: erythrocytes from whole blood of 7 donors. As to conditions: 2.5 μM, 2 h. Here is the method: Whole blood collected from 7 donors was washed in RPMI 1640 four times to remove plasma, platelets, and leukocytes. The number of erythrocytes was determined by using a cell counting chamber. Erythrocytes were incubated for 2 h at 37°C with or without 2.5 μM EHop-016 and then washed. In each sample, the Rac1 activation state was measured with the G-LISA Rac1 activation assay luminescence-based biochemical kit (Cytoskeleton). Luminescence intensity was assessed with a BioTek Synergy HT plate reader. These experiments were performed in three biological replicates.

In general, IC50 refers to the concentration needed to halve the response being measured. For the molecule `CCn1c2ccccc2c2cc(Nc3ccnc(NCCCN4CCOCC4)n3)ccc21` [EHop-016], the IC50 in the data set on 3D7 immature gametocytes was 740 ± 200 nM; in the data set on 3D7 mature gametocytes, 4650 ± 520 nM; in data set [1] (Homo sapiens, HMEC-1, MTT, 72 h, read-out: Mean HMEC-1 IC50 ± SD), 5220 ± 1070 nM; in the data set on Rac1 [2] it was 1100 nM. The “SI (selectivity index)” value in data set [1] (ratio IC50 against HMEC-1 cells / IC50 against D10 asexual parasites) was 37.8. Moreover, the “viability of human mammary epithelial cells” value in data set [3] was “does not affect the viability”. In data set [4], the “changes in weight or behavior” value is “did not cause any significant changes in weight or behavior”. Moreover, at Rac1 [5], the “levels of active Rac1 in noninfected erythrocytes” value is given as “does not inhibit Rac1 in noninfected erythrocytes”.
